The target of one series is Nociceptin receptor (Homo sapiens, UniProt P41146). In words: Displacement of [125I][Tyr14]nociceptin from human cloned ORL1 receptor expressed in CHO cells. Format: cell-based.
The target in the next series is Mu-type opioid receptor (Homo sapiens, UniProt P35372). In words: Displacement of [3H]diprenorphine from human mu opioid receptor expressed in CHO cells. Format: cell-based.
The target of series [1] is T1, Nuclear receptor subfamily 1 group I member 2 (Homo sapiens, UniProt O75469).
T1 sequence (O75469 whole entry): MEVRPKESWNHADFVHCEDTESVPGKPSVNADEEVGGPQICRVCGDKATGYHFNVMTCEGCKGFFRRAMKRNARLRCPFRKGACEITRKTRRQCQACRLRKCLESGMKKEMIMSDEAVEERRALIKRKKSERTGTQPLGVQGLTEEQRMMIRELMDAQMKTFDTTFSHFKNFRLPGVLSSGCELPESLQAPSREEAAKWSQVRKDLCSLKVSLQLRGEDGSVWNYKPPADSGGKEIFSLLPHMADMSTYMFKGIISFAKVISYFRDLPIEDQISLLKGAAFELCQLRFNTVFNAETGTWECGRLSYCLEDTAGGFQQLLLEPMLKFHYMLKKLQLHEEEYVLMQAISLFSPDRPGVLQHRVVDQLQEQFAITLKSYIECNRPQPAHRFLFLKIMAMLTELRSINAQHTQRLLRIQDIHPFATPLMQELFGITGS
Briefly: Activity at PXR in human hepatocytes assessed as induction of CYP3A4 activity at 1 uM relative rifampicin. Format: cell-based, Hepatocyte.

The species entered for the next series is Homo sapiens. Briefly: Selectivity for human cloned ORL1 receptor over human mu opioid receptor.

Where only a bound is given, the exact number is not on record here.

Nociceptin receptor, sequence (P41146 whole entry): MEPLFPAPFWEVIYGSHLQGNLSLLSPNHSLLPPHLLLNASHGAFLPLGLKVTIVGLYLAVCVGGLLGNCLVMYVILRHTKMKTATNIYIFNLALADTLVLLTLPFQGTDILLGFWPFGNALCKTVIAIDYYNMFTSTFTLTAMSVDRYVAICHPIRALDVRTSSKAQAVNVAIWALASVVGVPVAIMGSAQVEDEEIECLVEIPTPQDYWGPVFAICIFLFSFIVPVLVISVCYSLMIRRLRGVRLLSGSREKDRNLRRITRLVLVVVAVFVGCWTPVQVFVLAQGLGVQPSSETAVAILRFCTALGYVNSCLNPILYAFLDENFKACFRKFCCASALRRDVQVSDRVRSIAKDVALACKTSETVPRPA
Mu-type opioid receptor, sequence (P35372 whole entry): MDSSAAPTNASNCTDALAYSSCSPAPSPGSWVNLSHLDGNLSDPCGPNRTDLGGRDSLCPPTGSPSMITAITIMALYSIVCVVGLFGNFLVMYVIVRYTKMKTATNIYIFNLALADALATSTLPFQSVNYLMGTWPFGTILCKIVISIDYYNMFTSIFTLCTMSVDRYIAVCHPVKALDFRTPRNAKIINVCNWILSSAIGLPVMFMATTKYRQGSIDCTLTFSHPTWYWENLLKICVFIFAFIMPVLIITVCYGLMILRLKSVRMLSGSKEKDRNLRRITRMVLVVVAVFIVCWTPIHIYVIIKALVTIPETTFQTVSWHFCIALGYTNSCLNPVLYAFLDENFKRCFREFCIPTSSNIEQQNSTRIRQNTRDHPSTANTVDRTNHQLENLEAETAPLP

Consider `N[C@]1(Cc2ccc(Cl)cc2)C[C@H]2CC[C@@H](C1)N2C(c1ccccc1Cl)c1ccccc1Cl`, for which the Ki amounted to 36 nM on Nociceptin receptor and 447 nM at Mu-type opioid receptor.
As to `NC(=O)[C@]1(c2ccccn2)C[C@H]2CC[C@@H](C1)N2C(c1ccccc1Cl)c1ccccc1Cl`, the inhibitory constant (Ki) at Nociceptin receptor amounted to 4 nM; at Mu-type opioid receptor, 52 nM. In addition, in series [1], the Ratio was 0.79.
In the case of `CN(C)[C@]1(c2ccccn2)C[C@H]2CC[C@@H](C1)N2C(c1ccccc1Cl)c1ccccc1Cl`, the inhibition constant Ki on Nociceptin receptor is 42 nM; on Mu-type opioid receptor, 840 nM.
As for `NC(=O)[C@]1(c2ccncc2)C[C@H]2CC[C@@H](C1)N2C(c1ccccc1Cl)c1ccccc1Cl`, the Ki was determined as 79 nM on Nociceptin receptor and 265 nM at Mu-type opioid receptor. The same compound registered a fold change (FC) in the series filed under Homo sapiens of 20.
Turning to `NC(=O)[C@]1(c2cc(F)c(F)cn2)C[C@H]2CC[C@@H](C1)N2C(c1ccccc1Cl)c1ccccc1Cl`, the Ki on Nociceptin receptor amounted to 9 nM; at Mu-type opioid receptor, 74 nM. Besides, the Ratio in series [1] is reported as 0.18.
Compound `NC(=O)C[C@]1(Cc2ccc(O)cc2)C[C@H]2CC[C@@H](C1)N2C(c1ccccc1Cl)c1ccccc1Cl` registered a Ki on Nociceptin receptor of 17 nM. In addition, in series [1], the Ratio is recorded as 0.51.
Turning to `NC(=O)[C@]1(c2cc(CF)c(F)cn2)C[C@H]2CC[C@@H](C1)N2C(c1ccccc1Cl)c1ccccc1Cl`, the Ki turned out to be 19 nM at Nociceptin receptor and 367 nM on Mu-type opioid receptor. In addition, the Ratio in series [1] is on record as 0.77.
Regarding `NC(=O)[C@]1(c2nc(F)ccc2F)C[C@H]2CC[C@@H](C1)N2C(c1ccccc1Cl)c1ccccc1Cl`, the affinity on Nociceptin receptor, expressed as Ki, was 16 nM. In addition, the Ratio in series [1] is given as 0.83.
Turning to `COc1ccc([C@@]2(C(N)=O)C[C@H]3CC[C@@H](C2)N3C(c2ccccc2Cl)c2ccccc2Cl)nc1`, the inhibition constant (Ki) amounted to 22 nM at Nociceptin receptor and 133 nM on Mu-type opioid receptor. Moreover, the Ratio in series [1] is 0.19.
`NC(=O)[C@]1(c2ccc(C(F)(F)F)cn2)C[C@H]2CC[C@@H](C1)N2C(c1ccccc1Cl)c1ccccc1Cl` returned a Ki at Nociceptin receptor of 122 nM. The same compound yielded a fold change (FC) in the series listed under Homo sapiens of 4.
`NC(=O)[C@]1(c2ccc(Br)nc2)C[C@H]2CC[C@@H](C1)N2C(c1ccccc1Cl)c1ccccc1Cl`: the inhibition constant Ki at Nociceptin receptor came out at 13 nM; on Mu-type opioid receptor, 46 nM.
On to `NC(=O)[C@]1(c2cc(C(=O)O)c(F)cn2)C[C@H]2CC[C@@H](C1)N2C(c1ccccc1Cl)c1ccccc1Cl`, for which the Ki at Nociceptin receptor was > 1000 nM.
With `Cc1ccc([C@@]2(C(N)=O)C[C@H]3CC[C@@H](C2)N3C(c2ccccc2Cl)c2ccccc2Cl)nc1`, the values for the Ki at Nociceptin receptor and at Mu-type opioid receptor were 6 nM and 26 nM, respectively. The Ratio in series [1] was 0.4.
The compound `NC(=O)[C@]1(c2ccc(O)cn2)C[C@H]2CC[C@@H](C1)N2C(c1ccccc1Cl)c1ccccc1Cl` yielded a Ki at Nociceptin receptor of 72 nM. The compound further showed a fold change (FC) in the series listed under Homo sapiens of 4.
`NC(=O)[C@]1(Cc2ccc(Cl)cc2)C[C@H]2CC[C@@H](C1)N2C(c1ccccc1Cl)c1ccccc1Cl`: the results for the Ki at Nociceptin receptor and at Mu-type opioid receptor were 10 nM and 284 nM, respectively. For the same compound, in series [1], the Ratio is given as 0.67.
For `NC(=O)C1(C2CCCCN2)C[C@H]2CC[C@H](C1)N2C(c1ccccc1Cl)c1ccccc1Cl` (relative stereo), the Ki came to 17 nM at Nociceptin receptor and 474 nM on Mu-type opioid receptor.
As for `NC(=O)[C@]1(c2cccnc2)C[C@H]2CC[C@@H](C1)N2C(c1ccccc1Cl)c1ccccc1Cl`, the Ki came to 3 nM at Nociceptin receptor and 71 nM at Mu-type opioid receptor. For the same compound, the Ratio in series [1] is listed as 0.4.
With `NC(=O)[C@]1(c2cc(F)cc(F)n2)C[C@H]2CC[C@@H](C1)N2C(c1ccccc1Cl)c1ccccc1Cl`, the results for the Ki on Nociceptin receptor and at Mu-type opioid receptor were 15 nM and 468 nM, respectively. The Ratio in series [1] worked out at 0.55.
Take `COC(=O)c1ccc([C@@]2(C(N)=O)C[C@H]3CC[C@@H](C2)N3C(c2ccccc2Cl)c2ccccc2Cl)nc1`: the Ki at Nociceptin receptor is > 1000 nM. Besides, the fold change (FC) in the series listed under Homo sapiens came to 4.
With `NC(=O)[C@]1(c2ncc(F)cc2F)C[C@H]2CC[C@@H](C1)N2C(c1ccccc1Cl)c1ccccc1Cl`, on Nociceptin receptor, affinity was put at a Ki of 47 nM.
